Source: ChEMBL document CHEMBL5053532, “Bradykinin-Potentiating Peptide-Paclitaxel Conjugate Directed at Ectopically Expressed Angiotensin-Converting Enzyme in Triple-Negative Breast Cancer” (J Med Chem, 2021)
Active and inactive are the calls of the source. The rule behind the calls is not given here.

Experiments:
[1] = Acute toxicity in BALB/c mouse assessed as survival at 15 mg/kg, ip measured for 15 days; assay type: organism-based; conditions: in vivo, 360 h, time 15 day
[2] = test system: MDA-MB-468; assay: Antitumor activity in human […] cells xenografted in Balb/c mouse assessed as reduction in tumor growth at 2.4 micromol/kg, ip measured after 4 days; assay type: functional, organism-based; conditions: dose 2.4 µmol/kg, time 4.0 day
[3] = test system: MDA-MB-468; assay: Induction of apoptosis in ACE-positive human MDA-MB-468 cells assessed as increase in apoptotic cells at 10 nM measured after 48 hrs by Annexin V-FITC/PI staining based fluorescence microscopy; assay type: functional, cell-based
[4] = test system: MDA-MB-231; assay: Induction of apoptosis in ACE-positive human MDA-MB-231 cells assessed as increase in early apoptotic cells by measuring fragmented nuclei at 10 nM after 48 hrs by DAPI staining based fluorescence microscopy; assay type: functional, cell-based
[5] = test system: MDA-MB-468; assay: Antiproliferative activity against ACE-positive human MDA-MB-468 cells incubated for 48 hrs by MTT assay; assay type: functional, cell-based; conditions: MDA-MB-468, 48 h
[6] = Acute toxicity in BALB/c mouse assessed as rate of weight loss at 15 mg/kg, ip measured for 15 days; assay type: organism-based; conditions: in vivo, 360 h, time 15 day
[7] = test system: Mus musculus; assay: Toxicity in BALB/c mouse xenografted with human […] cells assessed as body weight loss at 2.4 micromol/kg, ip measured upto 24 days; assay type: organism-based; conditions: 576 h, dose 2.4 µmol/kg, time < 24 day
[8] = test system: MDA-MB-468; assay: Antitumor activity in human […] cells xenografted in Balb/c mouse assessed as tumor weight at 2.4 micromol/kg, ip measured after 28 days (reference value: 0.43 g); assay type: functional; conditions: dose 2.4 µmol/kg, time 28 day
[9] = test system: MDA-MB-231; assay: Induction of apoptosis in ACE-positive human MDA-MB-231 cells assessed as increase in apoptotic cells at 10 nM measured after 48 hrs by Annexin V-FITC/PI staining based fluorescence microscopy; assay type: functional, cell-based
[10] = Acute toxicity in BALB/c mouse assessed as rate of weight loss at 20 mg/kg, ip measured for 15 days; assay type: organism-based; conditions: in vivo, 360 h, time 15 day
[11] = test system: MDA-MB-231; assay: Antiproliferative activity against ACE-positive human MDA-MB-231 cells incubated for 48 hrs by MTT assay; assay type: functional, cell-based; conditions: MDA-MB-231, 48 h
[12] = Acute toxicity in BALB/c mouse assessed as survival at 20 mg/kg, ip measured for 15 days; assay type: organism-based; conditions: in vivo, 360 h, time 15 day
[13] = molecular target: Angiotensin-converting enzyme (Homo sapiens, UniProt P12821); assay: Binding affinity to human recombinant ACE protein assessed as dissociation constant incubated for 15 mins by […] binding analysis
[14] = test system: Mus musculus; assay: Toxicity in BALB/c mouse xenografted with human […] cells assessed as reduction in WBC count at 2.4 micromol/kg, ip measured after 28 days relative to control; assay type: organism-based; set-up: scale not given: the % may be the effect or the level left; conditions: 672 h, at 2.4 µmol/kg, time 28 day
[15] = test system: MDA-MB-468; assay: Antitumor activity in human […] cells xenografted in Balb/c mouse assessed as reduction in tumor growth at 2.4 micromol/kg, ip measured after 28 days relative to control; assay type: functional; set-up: scale not given: the % may be the effect or the level left; conditions: dose 2.4 µmol/kg, time 28 day
[16] = Drug uptake in BALB/c mouse xenografted with human […] cells measured in tumor at 17.6 micromol/kg, ip measured after 4 hrs; assay type: ADME, organism-based, Neoplasm; conditions: dose 17.6 µmol/kg, read-out: Drug uptake
[17] = Stability of the compound in rat plasma assessed as drug residual at 10 uM measured after 72 hrs by LC/MS analysis; assay type: ADME, cell-free; conditions: read-out: Stability
[18] = test system: MDA-MB-468; assay: Antitumor activity in human […] cells xenografted in Balb/c mouse assessed as reduction in tumor growth at 9.6 micromol/kg, ip measured after 28 days relative to control; assay type: functional; set-up: scale not given: the % may be the effect or the level left; conditions: dose 9.6 µmol/kg, time 28 day
[19] = test system: HEK-293T; assay: Antiproliferative activity against ACE-negative human HEK293T cells incubated for 48 hrs by MTT assay; assay type: functional, cell-based
[20] = Stability of the compound in PBS buffer assessed as drug residual at 10 uM measured after 72 hrs by LC/MS analysis; assay type: physicochemical; conditions: read-out: Stability
[21] = Drug uptake in BALB/c mouse xenografted with human […] cells measured in tumor at 17.6 micromol/kg, ip measured after 1 hr; assay type: ADME, organism-based, Neoplasm; conditions: dose 17.6 µmol/kg, read-out: Drug uptake

Angiotensin-converting enzyme, sequence (P12821 whole entry): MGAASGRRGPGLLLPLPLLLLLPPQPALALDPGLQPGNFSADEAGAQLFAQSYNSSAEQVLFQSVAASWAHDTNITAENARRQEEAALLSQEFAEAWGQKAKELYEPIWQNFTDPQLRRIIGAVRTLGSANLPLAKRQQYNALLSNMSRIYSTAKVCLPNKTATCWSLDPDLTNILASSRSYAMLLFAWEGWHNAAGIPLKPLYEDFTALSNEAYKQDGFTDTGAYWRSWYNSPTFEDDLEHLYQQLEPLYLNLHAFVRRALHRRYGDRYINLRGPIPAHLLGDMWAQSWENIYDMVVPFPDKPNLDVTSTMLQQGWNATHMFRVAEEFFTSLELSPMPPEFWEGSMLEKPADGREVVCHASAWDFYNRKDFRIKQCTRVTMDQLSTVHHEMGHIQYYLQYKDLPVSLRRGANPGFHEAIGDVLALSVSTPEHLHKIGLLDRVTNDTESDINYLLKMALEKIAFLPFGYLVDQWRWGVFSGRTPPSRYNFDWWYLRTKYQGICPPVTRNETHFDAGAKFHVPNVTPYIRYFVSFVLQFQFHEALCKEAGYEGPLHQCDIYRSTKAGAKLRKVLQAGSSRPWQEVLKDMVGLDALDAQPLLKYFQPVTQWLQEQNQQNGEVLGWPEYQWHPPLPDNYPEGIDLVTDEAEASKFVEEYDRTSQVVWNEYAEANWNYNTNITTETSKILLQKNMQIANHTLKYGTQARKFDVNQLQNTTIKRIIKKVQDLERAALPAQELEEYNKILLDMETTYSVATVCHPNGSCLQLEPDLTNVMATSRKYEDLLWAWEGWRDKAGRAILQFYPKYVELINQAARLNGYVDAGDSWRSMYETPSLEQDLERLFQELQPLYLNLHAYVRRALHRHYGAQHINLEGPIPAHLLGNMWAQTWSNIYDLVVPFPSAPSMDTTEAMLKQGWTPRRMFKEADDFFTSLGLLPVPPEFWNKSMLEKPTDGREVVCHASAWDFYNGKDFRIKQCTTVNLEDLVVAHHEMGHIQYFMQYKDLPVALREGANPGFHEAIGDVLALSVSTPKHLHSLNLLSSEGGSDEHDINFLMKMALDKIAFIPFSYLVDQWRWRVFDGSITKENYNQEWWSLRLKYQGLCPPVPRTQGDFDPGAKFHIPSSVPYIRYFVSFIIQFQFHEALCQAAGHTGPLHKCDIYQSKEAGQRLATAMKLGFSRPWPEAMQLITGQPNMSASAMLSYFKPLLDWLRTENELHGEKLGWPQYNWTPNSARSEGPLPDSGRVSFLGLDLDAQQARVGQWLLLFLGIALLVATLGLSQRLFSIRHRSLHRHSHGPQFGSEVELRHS

What does the source list for CC(=O)O[C@H]1C(=O)[C@@]2(C)[C@H]([C@H](OC(=O)c3ccccc3)[C@]3(O)C[C@H](OC(=O)[C@H](O)[C@@H](NC(=O)c4ccccc4)c4ccccc4)C(C)=C1C3(C)C)[C@]1(OC(C)=O)CO[C@@H]1C[C@@H]2O [PACLITAXEL]?
Activity [1]: Non-Toxic; Activity [2]: inactive; Activity [3]: Active; Activity [4]: Active; IC50 [5]: 3 nM; Activity [6]: 4%; Activity [7]: Non-Toxic; Activity [8]: 0.26 g; Activity [9]: Active; Activity [10]: 8.7%; IC50 [11]: 3.1 nM; Activity [12]: Non-Toxic; Kd [13]: Not Active; Activity [14]: 6.2%; Activity [15]: 15%; concentration at 4 h [16]: 2250 ng/g; remaining at 72 h, 10 µM [17]: 47.6%; Activity [18]: 30%; IC50 [19]: 6.7 nM; remaining at 72 h, 10 µM [20]: 70.3%; concentration at 1 h [21]: 6470 ng/g
